In the NIST ThermoML archive (doi:10.1021/acs.jced.8b00560):
Numbers after ± are expanded uncertainties.

Conditions: Crystal; DSC

| Triple point temperature [K] | SMILES |
| --- | --- |
| 398.5 ± 3.1 | NC(=O)c1cccnc1 [3-pyridinecarboxamide] |
| 392.5 ± 3.1 | O=C(O)c1ccccc1 [benzoic acid] |
